From US20170190726A9, “PRODRUG FOR RELEASE OF CISPLATIN AND CYCLOOXYGENASE INHIBITOR” (priority 2013, published 2017)

Key:
IL-6 = experiment: ELISA of IL-6 in LPS-stimulated RAW 264.7 macrophages; assay type: cell-based, mouse
Experimental: (§1) RAW 264.7 cells were plated at a concentration of 10,000 cells/mL in 96 plates and allowed to grow overnight. For preventative anti-inflammatory treatment, Platin-A (10 μM), aspirin (10 μM), cisplatin (10 μM) and an equimolar ratio of cisplatin and aspirin (10 μM each) was incubated with the RAW cells for 6 h. Lipopolysaccharide (LPS) (100 ng/mL) was added and the cells were further incubated for 12 h. For therapeutic anti-inflammatory treatment, LPS (100 ng/mL) was added to the RAW cells and incubated for 6 h. Platin-A (10 μM), aspirin (10 μM), cisplatin (10 μM) and an equimolar ratio of cisplatin and aspirin (10 μM each) was then added to the cells and incubated for 12 h. ELISA was performed on the supernatants against the cytokines interleukin (IL)-6, IL-10, and TNF-α. Briefly, antibody coated plates were blocked with 10% FBS in PBS for 1 h at room temperature followed by 3 washes. RAW cell supernatants were incubated on the plates for 2 h at room temperature. This was immediately followed by washings and sequential incubations with the cytokine-biotin conjugate and streptavidin working solution. Finally, the substrate reagent containing 3,3′,5,5′-tetramethylbenzidine (100 μL) was added to each well, incubated for 15 min, the reaction was stopped by adding 50 μL H2SO4 (0.1 M). The absorbance was recorded at 450 nm using a BioTek Synergy HT well plate reader.

PC3 cells = experiment: Apoptosis detection by annexin V/PI assay; assay type: cell-based, Human; conditions: 25 μM, 6 h
From the text: High expression of COX-2 is found in various cancers, however, for PCa cell lines as well as tissue, contradictory results exist. We therefore tested anti-proliferative properties of Platin-A on androgen-responsive LNCaP and androgenunresponsive PC3 and DU145 PCa cells that differ in their malignant potentials. […] However, in LNCaP cells, Platin-A activity was better than an equimolar mixture of cisplatin and aspirin. In general, Pt(IV) compounds are less cytotoxic compared to their active Pt(II) form. […] To evaluate whether Platin-A-dependent inhibition of cancer cell proliferation is associated with apoptosis, Alexa Fluor® 488 annexin V/propidium iodide (PI) staining assay was carried out in PC3 cells and the data were analyzed by fluorescence assisted cell sorting. […]
PC3 cells were seeded at a density of 1×10^6 cells/mL on each well of a six well plate and allowed to grow overnight. […] Cell density was determined and cells were resuspended in 1× annexinVbinding buffer to 1×10^6 cells/mL preparing a sufficient volume to have 100 μL per assay. […] After the incubation period, 400 μL of 1× annexin-binding buffer was added to each sample, samples were gently mixed keeping the samples on ice, and the samples were analyzed on the flow cytometer immediately.

TNF-α = experiment: ELISA of TNF-α in LPS-stimulated RAW 264.7 macrophages; assay type: cell-based, mouse
Experimental: as §1

ovine COX-1 = target: T1, ovine COX-1 (Ovis aries, UniProt P05979); experiment: In vitro COX inhibition assay (EIA), COX-1; assay type: biochemical; conditions: ovine COX-1, EIA, 0.25-1.5 mM, aspirin as positive control
T1 construct: purchased Cayman Chemicals 560101
T1 sequence (P05979 25-600): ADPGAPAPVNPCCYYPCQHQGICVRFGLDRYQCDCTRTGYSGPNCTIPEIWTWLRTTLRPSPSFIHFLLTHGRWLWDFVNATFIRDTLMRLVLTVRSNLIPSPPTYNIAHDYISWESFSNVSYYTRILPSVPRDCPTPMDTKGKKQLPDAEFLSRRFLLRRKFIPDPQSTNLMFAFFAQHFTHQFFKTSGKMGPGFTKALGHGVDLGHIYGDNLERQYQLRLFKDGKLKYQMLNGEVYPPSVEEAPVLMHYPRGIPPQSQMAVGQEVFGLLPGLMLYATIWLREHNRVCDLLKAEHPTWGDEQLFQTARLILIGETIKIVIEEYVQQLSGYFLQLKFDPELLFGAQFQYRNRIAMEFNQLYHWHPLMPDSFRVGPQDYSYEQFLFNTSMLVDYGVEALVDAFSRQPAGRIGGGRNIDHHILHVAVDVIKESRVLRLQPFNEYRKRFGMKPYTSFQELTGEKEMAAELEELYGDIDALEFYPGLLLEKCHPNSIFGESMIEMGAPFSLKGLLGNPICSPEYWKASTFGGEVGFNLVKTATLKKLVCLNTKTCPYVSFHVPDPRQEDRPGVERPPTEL
Experimental: An enzyme immunoassay (EIA) kit from Cayman Chemicals (catalogue number 560101) was used to assess the ability of Platin-A to inhibit ovine COX-1 and COX-2. COX inhibition assay was performed as per the manufacturer protocol. All stock solutions were prepared following manufactures instruction. This inhibition assay was carried out using a two-step process: COX reaction and EIA. COX reaction involved preparation of following samples.
(i) Background samples: COX-1 and COX-2 were inactivated by transferring 20 μL of each enzyme to an eppendorf tube and placing the tube in boiling water for 3 min. […] (ii) COX-1 or COX-2 100% initial activity samples: 950 μL of reaction buffer, 10 μL of heme, 10 μL of COX-1 or COX-2, and 20 μL of reaction buffer were added to each test tube. (iii) COX-1 or COX-2 inhibitor samples: 950 μL of reaction buffer, 10 μL of heme, 10 μL of COX-1 or COX-2 and 20 μL of COX-1 and COX-2 inhibitors under investigation, aspirin and Platin-A of different concentrations (0.25, 0.5, 0.75, 1, and 1.5 mM for COX-1; 0.75, 1, 1.25, 1.5, and 2 mM for COX-2) were added to each test tube.
All the samples were incubated for 5 min in water bath at 37° C. […]
For EIA, 100 μL of EIA buffer was added to non-specific binding well and 50 μL of EIA buffer to maximum binding wells. […] Absorbance was recorded at a wavelength of 410 nm using a plate reader.

[1] = preventive: pretreatment 10 μM 6 h, then LPS 12 h
[2] = therapeutic: LPS activated macrophages then 10 μM for 12 h

CC(=O)Oc1ccccc1C(=O)[O][Pt]([NH2])([NH2])([OH])([Cl])[Cl] [Platin-A]
LPS-induced IL-6 production (IL-6; [1]): significantly inhibited | levels of IL-6 (IL-6; [2]): significantly reduced | apoptosis induction (annexin V/PI) (PC3 cells): High level of apoptosis was induced | LPS-induced TNF-α production (TNF-α; [1]): significantly inhibited | levels of TNF-α (TNF-α; [2]): significantly reduced | COX-1 inhibition (ovine COX-1): very similar inhibition of both COX-1 and COX-2 as shown by aspirin
